Where two headings read alike, the source gives them in different places. Values belong to the compound of their own block, whether it stands above or below them.
What was measured:
HepG2 fatty liver cells = assay: TG content in oleic acid-induced fatty liver cells from HepG2; type: cell-based, human; settings: tested substances 1.0 μM
Experimental: The activity of the various ingredients as described herein, including mannitol and sucralose and others, in reduction of fat content was analyzed by using human hepatoma cell line Hep G2.
HepG2 cell lines (15×10^6 cells) were cultured in DMEM culture No. B, incubated in an incubator with 5% CO2 at 37° C. for 24 hours, cultured in DMEM culture No. C (serum-free medium) for 24 hours, and finally cultured in DMEM culture No. D (containing oleate/albumin complex) for another 48 hours to induce HepG2 cell lines to form fatty liver cells.
HepG2 cell lines were divided into six groups, including: (1) Blank: no treatment; (2) DMSO group: cells from Blank were treated with dimethyl sulfoxide (DMSO); (3) Control: induction with oleic acid to form fatty liver cells; (4) Vehicle group: fatty liver cells formed by induction with oleic acid were treated with DMSO; (5) Positive control: fatty liver cells were treated with silyrnarin; and (6) Test Group: fatty liver cells were treated with various compounds of the present invention.
After incubation for 72 hours, the treated cells from each group were successively washed twice in PBS, and then incubated with 0.5 ml of trypsin/EDTA for 3 minutes. Afterwards, the cells were scraped with 2 ml of PBS and then transferred to the centrifuge tube to be shattered by ultrasonic. A volume of 20 μl cell extracts was taken to determine the content of protein. TG determination was performed using commercially available combination of agents (Randox). The TG content obtained above was divided by the protein content to get a ratio, which represented the relative content of TG in cells.
The equation for calculating reduction rate (%) of TG was as follows: [1−(TG content of Test Group−TG content of Blank)/(TG content of Oleic acid induction Group−TG content of Blank)]×100%.

CYP2E1 = CYP2E1 (Homo sapiens, UniProt P05181); settings: microsomes, 30 min, pH 7.4
Experimental: After addition of the test sample, the amount of CYP450 isozyme metabolite standard 6-OH-CZX (6-Hydroxy-Chlorzoxazone) is specific used for calculation of the CYP450 isozyme (CYP2E1) inhibition ratio of the test sample by using the amount of 6-OH-CZX of the control group as the baseline.
All samples were tested in triplicate. To determine the percentage inhibition, each test compound was dissolved in 1, 2, 4 μg/mL to three different concentrations. The CYP2E1 activity levels in the presence of the test compounds were compared with the control incubations. The 500-μL reaction mixture, containing 0.5 mg of microsomal protein, was incubated with 320 μM CZX in the presence of 5 mM MgCl2 and 1 mM NADPH in 50 mM phosphate buffer with pH 7.4 at 37° C. for 30 min. The reaction was terminated by ice-cold acetonitrile, and then 4-hydroxyl tolbutamide was added as an internal standard. The organic phase was evaporated to dryness and reconstituted into the mobile phase (methanol:water=1:1) prior to liquid chromatography-tandem mass spectrometry (LC-MS/MS) analysis. An API 3000 triple-quadrupole mass spectrometer equipped with an ion-spray (ESI) source was used to determine 6-OH-CZX in the human liver microsomes. The ESI interface was used in the positive-ion mode. The 6-OH-CZX was monitored at a transition of m/z 284.5→185.9.
The CYP450 isozyme activity levels in the presence of the test compounds were compared with the control incubations.

[1] = system: Liver Injuries Induced by CCl4; assay: Liver injuries induced by CCl4 in mice (GSP, AST/ALT, HAI); type: in vivo; settings: CCl4-induced liver injuries; dose less than or equivalent to 100 mg per person
Experimental: In the normal control, animals were administered with normal saline by intraperitoneal injection. In the control group of CCl4 induced liver injuries, animals were intraperitoneally injected with 10 ml/kg CCl4 (40% in corn oil) to induce hepatotoxicity. In the experimental group, animals were intraperitoneally injected with 10 ml/kg CCl4 (40% in corn oil) to induce hepatotoxicity, and 4 hours later, different ingredients of the present invention were administered by tube feeding. Blood was collected from the mice before administration with the ingredients of the present invention or at 24 hours after administration with the ingredients of the present invention for AST/ALT assays. Finally, animals were sacrificed at day 2 and blood were collected for AST/ALT assay and histological analysis was performed.
On the other hand, other experimental groups of mice were fed with the ingredients of the present invention for 12 weeks and the mice were subjected to GSP tests.
(§1) Liver damage is quantified by measuring plasma AST and ALT activity. AST and ALT are common indicators of hepatotoxicity and are measured by using the Synchron LXi 725 system (Beckman Instruments, U.S.).
Following scarification of the rats, histological analysis was performed. Liver samples were fixed with 10% phosphate-buffered formalin, dehydrated an embedded in paraffin, Sections were prepared in 5 μm thickness and then stained with hematoxylin and eosin and subjected to Periodic acid Schiff stain (PAS). The stained sections were observed under the optic microscope.
After the study was completed, all rats were subjected to GSP test. Rats were i.v. injected with 0.4 g/ml BW galactose solution 0.5 g/kg within 30 seconds and one blood sample was collected at 5, 10, 15, 30, 45 and 60 minutes post injection from the tail vein. Colorimetric galactose dehydrogenase is used to quantify the concentration of galactose and the test concentration ranges from 50 to 1,000 μg/ml. The within-day variation of each concentration is calculated using standard deviation and coefficient of variation (CV) and the maximum allowable coefficient of variation is 10% CV, whereas day-to-day variation is examined by comparing the slope and intercept of calibration curves. The GSP is the blood galactose concentration obtained 60 seconds after stopping the 30-second injection.
All data are represented in mean±standard deviation (SD) and the results are calculated using ANOVA to determine the significance. Statistical Package of the Social Science program (Version 13, SPSS Inc.) is used for calculations followed by post hoc test to examine the least significant difference for multiple comparisons so as to confirm the significant differences between groups and the average difference between groups was significant p<0.05.

[2] = system: Liver Injuries Induced by APAP; assay: Liver injuries induced by APAP in rats (GSP, AST/ALT, HAI, survival); type: in vivo, SD (Sprague-Dawley) rats; settings: APAP 2,000 mg/kg, 140 mg/kg of NAC followed by 5 × 70 mg/kg NAC at 4 h intervals
Experimental: Male SD (Sprague-Dawley) rats weighing 175-280 g were purchased from the National Laboratory Animal Center (NLAC), Taiwan. The study was conducted in accordance with the Guidelines for Conducting Animal Studies of the National Health Research Institute and all rats were placed in the air/humidity controlled environment under the 12 hours of day/12 hours of night cycle and with unlimited water and food supply. During the course of the study, the weights of rats were monitored continuously with normal water supply.
In the normal control (Group 1), animals were not fed with APAP. In the control group of APAP-induced liver injuries (Group 2), animals were fed with a single dose of APAP in the amount of 2,000 mg per kilogram of body weight to induce hepatotoxicity. In the positive control group of treatment with NAC (Group 3), animals were fed with a single dose of APAP in the amount of 2,000 mg per kilogram of body weight to induce hepatotoxicity, and 4 hours later, a 24-hour treatment period by tube feeding was started, including first administration of 140 mg of NAC (per kilogram of body weight) and later administration of 70 mg of NAC (per kilogram of body weight) every 4 hours for five times. In the experimental group (Group 4), animals were fed with a single dose of APAP in the amount of 2,000 mg per kilogram of body weight to induce hepatotoxicity, and 4 hours later, a 24-hour treatment period by tube feeding was started, including six dosing with the ingredients of the present invention every 4 hours, as follows: • (a) (Group 4.1): administration of mannitol at a dose less than or equivalent to 100 mg per person every 4 hours for 24 hours, • (b) (Group 4.2): administration of double dose of mannitol as in Group 4.1 every 4 hours for 24 hours, • (c) (Group 4.3): administration of sucralose at a dose less than or equivalent to 100 mg per person every 4 hours for 24 hours, • (d) (Group 4.4): administration of double dose of sucralose of Group 4.3 every 4 hours for 24 hours, • (e) (Group 4.5): administration of a combination of 0.5 times the dose of mannitol as in Group 4.1 and 0.5 times the dose of sucralose as in Group 4.3 per kilogram of body weight every 4 hours for 24 hours, • (f) (Group 4.6): administration of a combination of the dose of mannitol as in Group 4.1 and the dose of sucralose as in Group 4.3 every 4 hours for 24 hours, • (g) (Group 4.7): administration of a combination of 1.5 times the dose of mannitol as in Group 4.1 and 1.5 times the dose of sucralose as in Group 4.3 every 4 hours for 24 hours, • (h) (Group 4.8): administration of a combination of double dose of mannitol as in Group 4.1 and double dose of sucralose as in Group 4.3 every 4 hours for 24 hours, and • (i) (Group 4.9): first administration of 140 mg of NAC per kilogram of body weight and later administration of a combination of 70 mg of NAC plus double dose of mannitol as in Group 4.1 and double dose of sucralose as in Group 4.3 every 4 hours for five times.
After the 24-hour treatment period, blood was collected from the tail artery of the rats for AST/SLT assays. Subsequently, rats were subjected to GSP tests. Finally, rats were sacrificed and histological analysis was performed.
After completion of the treatments, rats were sacrificed under ether anesthesia, and blood was collected from the tail artery of the rats and placed in a test tube containing EDTA. The plasma was centrifuged at 13,000 at 4° C. for 15 minutes and the isolated plasma was transferred to Eppendorf tubes in aliquots and stored at −80° C.
as §1
Following scarification of the rats, histological analysis was performed.

Sequence of CYP2E1 (P05181 whole entry): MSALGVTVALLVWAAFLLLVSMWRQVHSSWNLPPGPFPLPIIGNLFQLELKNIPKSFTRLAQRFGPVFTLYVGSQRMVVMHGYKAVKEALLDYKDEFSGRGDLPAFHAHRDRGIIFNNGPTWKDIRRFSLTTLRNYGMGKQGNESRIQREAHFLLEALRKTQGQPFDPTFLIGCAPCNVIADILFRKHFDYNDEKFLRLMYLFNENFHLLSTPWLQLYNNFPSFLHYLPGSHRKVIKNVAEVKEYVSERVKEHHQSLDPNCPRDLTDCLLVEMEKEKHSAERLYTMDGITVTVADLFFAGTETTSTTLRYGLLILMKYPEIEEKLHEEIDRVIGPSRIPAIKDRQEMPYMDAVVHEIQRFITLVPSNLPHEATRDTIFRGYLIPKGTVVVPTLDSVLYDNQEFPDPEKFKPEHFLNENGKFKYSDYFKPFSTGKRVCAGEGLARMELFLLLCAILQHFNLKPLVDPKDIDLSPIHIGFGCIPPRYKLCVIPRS

Compound: Oc1cc(O)c2c(c1)O[C@H](c1ccc(O)c(O)c1)[C@@H](O)C2 [(+)-Catechin]
TG reduction rate (%) (HepG2 fatty liver cells): 29.57 ± 4.02%

Compound: Oc1cc(O)c2c(c1)O[C@H](c1ccc(O)c(O)c1)[C@H](O)C2 [(−)-Epicatechin]
TG reduction rate (%) (HepG2 fatty liver cells): 10.76 ± 8.92%

Compound: Oc1cc(O)c2c(c1)O[C@H](c1cc(O)c(O)c(O)c1)[C@H](O)C2 [(−)-Epigallocatechin]
TG reduction rate (%) (HepG2 fatty liver cells): 36.78 ± 6.67%

Compound: COc1ccc(O)c(C(C)(C)C)c1 [Butylated hydroxyanisole]
TG reduction rate (%) (HepG2 fatty liver cells): 6.21 ± 3.8%

CYP 2E1 inhibition ratio (%) (CYP2E1; 10 μM): 11.2 ± 2.4% | CYP 2E1 inhibition ratio (%) (CYP2E1; 50 μM): 51.2 ± 3.2%
Compound: CCN(CC)C(=S)S [DDTC, Diethyldithiocarbamic acid]

Compound: COc1ccc([C@@H]2CC(=O)c3c(O)cc(O[C@@H]4O[C@H](CO[C@@H]5O[C@@H](C)[C@H](O)[C@@H](O)[C@H]5O)[C@@H](O)[C@H](O)[C@H]4O)cc3O2)cc1 [Didymin]
TG reduction rate (%) (HepG2 fatty liver cells): 20.37 ± 12.69%

Compound: O=c1c(O)c(-c2ccc(O)c(O)c2)oc2c(O[C@@H]3O[C@H](CO)[C@@H](O)[C@H](O)[C@H]3O)c(O)cc(O)c12 [Gossypin]
TG reduction rate (%) (HepG2 fatty liver cells): 20.25 ± 4.63%

Compound: COc1ccc([C@@H]2CC(=O)c3c(O)cc(O[C@@H]4O[C@H](CO[C@@H]5O[C@@H](C)[C@H](O)[C@@H](O)[C@H]5O)[C@@H](O)[C@H](O)[C@H]4O)cc3O2)cc1O [Hesperidin]
TG reduction rate (%) (HepG2 fatty liver cells): 34.81 ± 5.25%

Compound: O=c1c(O)c(-c2ccc(O)cc2)oc2cc(O)cc(O)c12 [Kaempferol]
ALT [1]: 128 ± 40 IU/L | AST [1]: 198 ± 105 IU/L | GSP [1]: 456 ± 101 mg/L

Compound: COc1ccc(-c2cc(=O)c3c(O)cc(O[C@@H]4O[C@H](CO[C@@H]5O[C@@H](C)[C@H](O)[C@@H](O)[C@H]5O)[C@@H](O)[C@H](O)[C@H]4O)cc3o2)cc1 [Linarin]
TG reduction rate (%) (HepG2 fatty liver cells): 9.24 ± 12.34%

Compound: O=c1cc(-c2ccc(O)c(O)c2)oc2cc(O[C@@H]3O[C@H](CO)[C@@H](O)[C@H](O)[C@H]3O)cc(O)c12 [Luteolin-7-glucoside]
TG reduction rate (%) (HepG2 fatty liver cells): 19.33 ± 4.59%

Compound: CC(=O)N[C@@H](CS)C(=O)O [NAC, N-acetylcysteine, reference compound]
ALT [2]: 221 ± 69 IU/L | AST [2]: 428 ± 74 IU/L | GSP [2]: 393 ± 68 mg/L | Total HAI score [2]: 4.2 ± 0.8 | Survival (Day 14, n/n) ([2]; Day 14): 3/6

Compound: COc1ccc([C@@H]2CC(=O)c3c(O)cc(O[C@@H]4O[C@H](CO)[C@@H](O)[C@H](O)[C@H]4O[C@@H]4O[C@@H](C)[C@H](O)[C@@H](O)[C@H]4O)cc3O2)cc1O [Neohesperidin]
TG reduction rate (%) (HepG2 fatty liver cells): 13.29 ± 7.21%

Compound: O=C(O)c1ccc(O)c(O)c1 [Protocatechuic acid]
TG reduction rate (%) (HepG2 fatty liver cells): 18.57 ± 7.6%

Compound: C[C@@H]1O[C@@H](Oc2c(-c3ccc(O)c(O)c3)oc3cc(O)cc(O)c3c2=O)[C@H](O)[C@H](O)[C@H]1O [Quercitrin]
TG reduction rate (%) (HepG2 fatty liver cells): 9.15 ± 9.24%

Compound: COc1ccc(-c2cc(=O)c3c(O)cc(O)c(-c4cc(-c5cc(=O)c6c(O)cc(OC)cc6o5)ccc4OC)c3o2)cc1 [Sciadopitysin]
TG reduction rate (%) (HepG2 fatty liver cells): 21.83 ± 5.04%

Compound: O=C([O-])c1ccccc1.[Na+] [Sodium benzoate]
TG reduction rate (%) (HepG2 fatty liver cells): 14.35 ± 4.86%

Compound: O=S(=O)([O-])NC1CCCCC1.[Na+] [Sodium cyclamate]
TG reduction rate (%) (HepG2 fatty liver cells): 4.77 ± 4.49%

Compound: COc1c(O)cc(O)c2c(=O)cc(-c3ccccc3)oc12 [Wongonin]
TG reduction rate (%) (HepG2 fatty liver cells): 20.78 ± 1.12%

Compound: O=c1c(O)c(-c2ccc(O)c(O)c2)oc2cc(O)cc(O)c12 [quercetin]
ALT [1]: 93 ± 26 IU/L | AST [1]: 115 ± 40 IU/L | GSP [1]: 286 ± 70 mg/L | Total HAI score [1]: 1.1 ± 0.7

Compound: (−)-Epicatechin-3-gallate
TG reduction rate (%) (HepG2 fatty liver cells): 32.7 ± 4.33%

Compound: epigallocetechin-3-gallate
ALT [1]: 95 ± 36 IU/L | AST [1]: 144 ± 49 IU/L | GSP [1]: 312 ± 140 mg/L | Total HAI score [1]: 1.7 ± 0.9
